Experimental data reported in paper PMC10762035, “Molecular basis of human trace amine-associated receptor 1 activation” (Nature Communications, 2024).
Where a chain is given by its changes, count along the chain named. Several values for one entry are separate records, joined by “and”; a condition that tells them apart may be missing. Equal entries are not always repeated.

Experiments:
Format in all cases: cell-based
hTA1 C88S = molecular target: T1, hTA1 C88S (Homo sapiens, UniProt Q96RJ0, C88S); assay: GloSensor cAMP accumulation assay, C88S mutant; settings: C88S; for Span ± SEM (Emax normalized to β-PEA) / pEC50 ± SEM / EC50: n=2; for EC50: read-out: EC50
T1 construct: expressed in transfected cells; host or cells: HEK293T
T1 sequence (Q96RJ0 1-339 C88S): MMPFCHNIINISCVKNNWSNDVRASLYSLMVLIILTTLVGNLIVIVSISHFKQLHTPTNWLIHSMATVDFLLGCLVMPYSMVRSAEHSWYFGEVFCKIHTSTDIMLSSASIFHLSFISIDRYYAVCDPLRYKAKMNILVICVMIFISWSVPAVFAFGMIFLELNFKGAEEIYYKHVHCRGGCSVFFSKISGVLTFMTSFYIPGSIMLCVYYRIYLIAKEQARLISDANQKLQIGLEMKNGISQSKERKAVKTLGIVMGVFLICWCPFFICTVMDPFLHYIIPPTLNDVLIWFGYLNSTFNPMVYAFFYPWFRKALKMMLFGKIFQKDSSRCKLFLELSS

hTA1 I290Y = molecular target: T2, hTA1 I290Y (Homo sapiens, UniProt Q96RJ0, I290Y); assay: GloSensor cAMP accumulation assay, I290Y mutant; settings: for EC50: read-out: EC50; for Emax values, Mean: β-PEA = 100; for cAMP accumulation response, normalized (concentration-response source data, single replicate values): hTA1 I290Y (N=3), log[Compound];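 on cAMP accumulation response, normalized (concentration-response source data, single replicate values): normalized to the maximum response of β-PEA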
T2 construct: expressed in transfected cells; host or cells: HEK293T
T2 sequence (Q96RJ0 1-339 I290Y): T1 sequence (Q96RJ0 1-339 C88S) with S88C, I290Y

hTA1 T271A = molecular target: T3, hTA1 T271A (Homo sapiens, UniProt Q96RJ0, T271A); assay: GloSensor cAMP accumulation assay, T271A mutant; settings: for ΔpEC50 values (each mutant value - WT average), Mean: T271A mutant minus WT average; for ΔpEC50 values (each mutant value - WT average), Mean / pEC50 values, Mean / Emax values, Mean: Figure 5B; for pEC50 values, Mean / Emax values, Mean: T271A mutant, each row one independent experiment (3 replicates); for Emax values, Mean: β-PEA = 100; for Span ± SEM (Emax normalized to β-PEA) / pEC50 ± SEM / EC50: T271A, n=2; for EC50: read-out: EC50
T3 construct: expressed in transfected cells; host or cells: HEK293T
T3 sequence (Q96RJ0 1-339 T271A): T1 sequence (Q96RJ0 1-339 C88S) with S88C, T271A

[1] = I290Y, single experiments (3 replicates each)

Row | SMILES | Emax values (hTA1 C88S; Mean of fit per experiment) | Span ± SEM (Emax normalized to β-PEA) (hTA1 C88S) | pEC50 ± SEM (hTA1 C88S) | EC50 (hTA1 C88S) | Span ± SEM (Emax normalized to β-PEA) (hTA1 I290Y; I290Y) | pEC50 ± SEM (hTA1 I290Y; I290Y) | EC50 (hTA1 I290Y; I290Y) | Emax values, Mean (hTA1 I290Y; [1]) | cAMP accumulation response, normalized (concentration-response source data, single replicate values) (hTA1 I290Y; M = -5) | cAMP accumulation response, normalized (concentration-response source data, single replicate values) (hTA1 I290Y; M = -5.522) | cAMP accumulation response, normalized (concentration-response source data, single replicate values) (hTA1 I290Y; M = -6) | cAMP accumulation response, normalized (concentration-response source data, single replicate values) (hTA1 I290Y; M = -6.522) | cAMP accumulation response, normalized (concentration-response source data, single replicate values) (hTA1 I290Y; M = -7) | cAMP accumulation response, normalized (concentration-response source data, single replicate values) (hTA1 I290Y; M = -7.522) | cAMP accumulation response, normalized (concentration-response source data, single replicate values) (hTA1 I290Y; M = -8) | cAMP accumulation response, normalized (concentration-response source data, single replicate values) (hTA1 I290Y; M = -8.522) | cAMP accumulation response, normalized (concentration-response source data, single replicate values) (hTA1 I290Y; M = -9) | cAMP accumulation response, normalized (concentration-response source data, single replicate values) (hTA1 I290Y; M = -9.522) | cAMP accumulation response, normalized (concentration-response source data, single replicate values) (hTA1 I290Y; M = -10) | cAMP accumulation response, normalized (concentration-response source data, single replicate values) (hTA1 I290Y; M = -10.522) | other results
1 | Cc1c(F)cccc1[C@H]1COC(N)=N1 [Ro5263397] | 109.361 and 91.1412 | 100.25 ± 9.11 | 8.78 ± 0.06 | 1.64 nM | 61.58 ± 3.99 | 9.16 ± 0.18 | 0.69 nM and 0.7 nM | 59.7265 and 69.2263 and 55.7889 | 77.8381 and 104.308 and 85.2251 and 91.2333 and 75.1101 and 85.0039 and 68.1063 and 86.1539 and 148.193 | 49.5212 and 78.7614 and 62.4485 and 78.7745 and 74.7437 and 50.1924 and 55.6986 and 43.2908 and 39.9069 | 40.5953 and 87.0718 and 61.2173 and 64.117 and 63.3841 and 61.5519 and 45.5468 (2×) and 50.0587 | 56.6004 and 53.5225 and 48.9057 and 84.6375 and 52.7574 and 75.4765 and 66.9783 and 45.5468 and 38.7789 | 35.3628 and 69.2199 and 41.5187 and 56.0554 and 64.117 and 50.9252 and 46.6748 and 39.9069 and 45.5468 | 46.4433 and 76.2991 and 50.1368 and 60.819 and 63.0177 and 60.4526 and 39.9069 and 45.5468 and 47.8027 | 61.8329 and 86.4562 and 67.9887 and 68.1478 and 70.3464 and 73.6443 and 36.523 and 37.651 and 32.0111 | 54.7537 and 78.4536 and 76.2991 and 69.98 and 71.4457 and 63.7505 and 30.8831 and 33.1391 (2×) | 45.2122 and 78.7614 and 61.8329 and 45.0622 and 50.1924 and 56.0554 and 15.0915 and 19.6034 and 12.8355 | 19.3577 and 32.5927 and 26.1291 and 49.4595 and 39.5657 and 25.2746 and 3.812 (2×) and 8.324 | 27.9758 and 29.5148 and 27.3602 and 7.319 and 9.884 and 17.5794 and 0.4278 and 2.684 and 7.196 | 6.738 | Emax (hTA1 C88S; relative to β-PEA): 100.3%; ΔpEC50 values (each mutant value - WT average), Mean (hTA1 T271A): -0.5707 and -0.4899; pEC50 values, Mean (hTA1 T271A): 8.26 and 8.341; Emax values, Mean (hTA1 T271A): 76.005 and 87.3949; Span ± SEM (Emax normalized to β-PEA) (hTA1 T271A): 81.70 ± 5.69; pEC50 ± SEM (hTA1 T271A): 8.3 ± 0.07; EC50 (hTA1 T271A): 5 nM
2 | NCCc1ccc(Oc2ccc(O)cc2)c(I)c1 [T1AM, 3-iodothyronamine] | 51.5909 and 77.2309 | 64.41 | 6.16 ± 0.04 | 690 nM | 68.94 ± 4.39 | 6.05 ± 0.08 | 889 nM | 77.2061 and 62.2509 and 67.3555 | 82.7627 and 66.4498 and 84.9173 and 54.2232 and 60.0862 and 58.254 and 61.3384 and 53.4426 and 63.5944 | 50.7524 and 44.2888 and 57.216 and 57.1547 and 52.391 and 42.1307 and 35.395 and 42.1629 and 29.7552 | 45.5199 and 34.7472 and 39.6719 and 40.665 and 36.2677 and 35.5349 and 24.1153 and 32.0111 and 19.6034 | 32.5927 and 17.8187 and 23.9745 and 21.6102 and 23.076 and 24.1753 and 17.3474 and 11.7076 (2×) | 19.6655 and 9.201 and 18.4343 and 8.4185 and 1.456 and 10.9836 and 6.068 and 3.812 and 4.9397 | 3.968 and -2.188 and 2.737 and 2.189 and -3.307 and -4.04 and -0.7002 and 0.4278 and -1.828 | 2.429 and 0.2746 and -0.0332 and -1.842 and -5.873 and -3.674 and -2.956 and -4.0841 and -0.7002 | 0.2746 and -3.111 and -0.341 and -6.605 (2×) and -5.873 and -4.0841 (2×) and -5.212 | -1.88 and -2.803 and -1.572 and 0.7233 and -0.376 and -4.773 and -6.34 and -4.0841 (2×) | -1.88 and -3.7267 and -2.188 and -6.605 and -1.109 and -4.407 and -4.0841 (2×) and -6.34 | -0.0332 and -2.496 and -1.572 and -6.605 and -6.972 and 4.021 and -2.956 (2×) and -6.34 | -1.572 | pEC50 values (hTA1 C88S; Mean of fit per experiment): 6.196 and 6.127; pEC50 values, Mean (hTA1 I290Y; [1]): 6.088 and 6.268 and 5.798; ΔpEC50 values (each mutant value - WT average), Mean (hTA1 T271A): -0.6347 and -0.7159; pEC50 values, Mean (hTA1 T271A): 5.495 and 5.413; Emax values, Mean (hTA1 T271A): 41.9229 and 94.6558; Span ± SEM (Emax normalized to β-PEA) (hTA1 T271A): 68.29; pEC50 ± SEM (hTA1 T271A): 5.45 ± 0.03; EC50 (hTA1 T271A): 3520 nM
